Laboratory results: ChEMBL document CHEMBL1158175, “Substituted benzylaminoalkylindoles with preference for the sigma2 binding site” (Eur J Med Chem, 2008)
pIC50, pKi: −log10 of the molar value.

Experiments:
Rattus norvegicus [1] = organism: Rattus norvegicus; assay: Displacement of [3H]DTH from sigma 2 receptor in rat liver homogenate at 100 nM in presence of (+)-pentazocine; type: tissue-based
[2] = target: Sigma non-opioid intracellular receptor 1 (Rattus norvegicus) (UniProt Q9R0C9); assay: Displacement of [3H] (+)-pentazocine from sigma 1 receptor in rat liver homogenate at 100 nM; type: tissue-based
[3] = Displacement of [3H]DTH from sigma 2 receptor in rat liver homogenate in presence of (+)-pentazocine; type: tissue-based
Rattus norvegicus [4] = organism: Rattus norvegicus; assay: Selectivity ratio of Ki for rat sigma 1 receptor to Ki for rat sigma 2 receptor
[5] = target: Sigma non-opioid intracellular receptor 1 (Rattus norvegicus, UniProt Q9R0C9); assay: Displacement of [3H] (+)-pentazocine from sigma 1 receptor in rat liver homogenate; type: tissue-based
Sequence of Sigma non-opioid intracellular receptor 1 (Q9R0C9 whole entry): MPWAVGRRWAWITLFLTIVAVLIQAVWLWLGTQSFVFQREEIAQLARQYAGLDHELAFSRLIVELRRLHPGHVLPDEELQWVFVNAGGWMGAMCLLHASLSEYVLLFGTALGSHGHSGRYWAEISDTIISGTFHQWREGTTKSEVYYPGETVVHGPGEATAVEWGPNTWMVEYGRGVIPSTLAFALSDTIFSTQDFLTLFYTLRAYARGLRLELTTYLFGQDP

Sequence of Sigma non-opioid intracellular receptor 1 (Rattus norvegicus) (Q9R0C9 whole entry): as above

Structure (SMILES) | Activity (Rattus norvegicus [1]) [%] | Activity [2] [%] | pKi [3] | Ratio Ki (Rattus norvegicus [4]) | pKi [5] | pIC50 [3]
Cc1ccc(CN(C)CCCCc2cn(-c3ccc(F)cc3)c3ccccc23)cc1 | 87 | 71 | – | – | – | –
CN(CCCc1cn(-c2ccc(F)cc2)c2ccccc12)Cc1ccccc1 | 27 | 78 | 6.35 | 0.05 | 7.68 | –
CN(CCCc1cn(-c2ccc(F)cc2)c2ccccc12)Cc1ccc(Cl)c(Cl)c1 | 39 | 28 | – | – | – | –
CN(CCCc1cn(-c2ccc(F)cc2)c2ccccc12)Cc1ccccc1Cl | 40 | 56 | – | – | – | –
CN(CCCc1cn(-c2ccc(F)cc2)c2ccccc12)Cc1ccc(Cl)cc1 | 59 | 68 | – | – | – | –
CN(CCCCc1cn(-c2ccc(F)cc2)c2ccccc12)Cc1ccccc1Cl | 87 | 58 | – | – | – | –
Cc1ccc(CN(C)CCCc2cn(-c3ccc(F)cc3)c3ccccc23)cc1 | 78 | 69 | – | – | – | –
Fc1ccc(-n2cc(CCCCN3CCC4(CC3)OCc3ccccc34)c3ccccc32)cc1 [SIRAMESINE] | – | – | – | – | – | 9.92
CN(CCCc1cn(-c2ccc(F)cc2)c2ccccc12)Cc1ccccc1F | 46 | 59 | – | – | – | –
COc1cccc2c1CCCC2CCCCN1CCN(C2CCCCC2)CC1 (stereo not drawn) | – | – | 9.47 | – | – | –
CN(CCCc1cn(-c2ccc(F)cc2)c2ccccc12)Cc1ccccc1Br | 43 | 41 | – | – | – | –
CN(CCCCc1cn(-c2ccc(F)cc2)c2ccccc12)Cc1ccccc1F | 88 | 49 | – | – | – | –
Cc1ccc(CN(C)CCCc2cn(-c3ccc(F)cc3)c3ccccc23)cc1C | 85 | 38 | 7.33 | 2.5 | 6.93 | –

Now from value to molecule:

Activity (Rattus norvegicus [1]) [%] | Activity [2] [%] | pKi [3] | Ratio Ki (Rattus norvegicus [4]) | pKi [5] | pIC50 [3] | Structure (SMILES)
64 | 63 | – | – | – | – | Cc1cccc(CN(C)CCCc2cn(-c3ccc(F)cc3)c3ccccc23)c1
59 | 42 | 6.91 | 0.8 | 7.00 | – | CN(CCCc1cn(-c2ccc(F)cc2)c2ccccc12)Cc1cccc(Cl)c1
85 | 51 | – | – | – | – | Cc1cccc(CN(C)CCCCc2cn(-c3ccc(F)cc3)c3ccccc23)c1
68 | 76 | 7.24 | 0.76 | 7.37 | – | CN(CCCCc1cn(-c2ccc(F)cc2)c2ccccc12)Cc1ccccc1
93 | 37 | 8.23 | 0.05 | 7.68 | – | Cc1ccc(CN(C)CCCCc2cn(-c3ccc(F)cc3)c3ccccc23)cc1C
86 | 46 | – | – | – | – | CN(CCCCc1cn(-c2ccc(F)cc2)c2ccccc12)Cc1ccccc1Br
84 | 70 | – | – | – | – | CN(CCCCc1cn(-c2ccc(F)cc2)c2ccccc12)Cc1ccc(Br)cc1
69 | 10 | – | – | – | – | CN(CCCCc1cn(-c2ccc(F)cc2)c2ccccc12)Cc1ccc(Cl)c(Cl)c1
62 | 40 | – | – | – | – | CN(CCCc1cn(-c2ccc(F)cc2)c2ccccc12)Cc1cccc(Br)c1
85 | 72 | – | – | – | – | CN(CCCCc1cn(-c2ccc(F)cc2)c2ccccc12)Cc1ccc(Cl)cc1
78 | 28 | – | – | – | – | CN(CCCCc1cn(-c2ccc(F)cc2)c2ccccc12)Cc1cccc(Br)c1
89 | 22 | 7.59 | 7.9 | 6.70 | – | CN(CCCCc1cn(-c2ccc(F)cc2)c2ccccc12)Cc1cccc(Cl)c1
54 | 71 | – | – | – | – | CN(CCCc1cn(-c2ccc(F)cc2)c2ccccc12)Cc1ccc(Br)cc1
